Measurements reported in patent US20260028326A1, “COMPOUND BASED ON ISOINDOLINE-SUBSTITUTED GLUTARIMIDE BACKBONE AND USE THEREOF” (GLUETACS THERAPEUTICS (SHANGHAI) CO., LTD., priority 2022, published 2026).

What was measured:
IKZF1 protein = IKZF1 protein (Homo sapiens (Human), UniProt Q13422+Q96SW2); assay: Western-blot assay of substrate protein degradation in hPBMC, IKZF1; format: cell-based; settings: hPBMC cells, compound 500 nM, 24 hours, Western blot
[1] = molecular target: human Cereblon WT GST-tagged protein (Homo sapiens (Human), UniProt Q96SW2); assay: CRBN-binding affinity, HTRF (CEREBLON BINDING kit)
Sequence of human Cereblon WT GST-tagged protein (Q96SW2 whole entry): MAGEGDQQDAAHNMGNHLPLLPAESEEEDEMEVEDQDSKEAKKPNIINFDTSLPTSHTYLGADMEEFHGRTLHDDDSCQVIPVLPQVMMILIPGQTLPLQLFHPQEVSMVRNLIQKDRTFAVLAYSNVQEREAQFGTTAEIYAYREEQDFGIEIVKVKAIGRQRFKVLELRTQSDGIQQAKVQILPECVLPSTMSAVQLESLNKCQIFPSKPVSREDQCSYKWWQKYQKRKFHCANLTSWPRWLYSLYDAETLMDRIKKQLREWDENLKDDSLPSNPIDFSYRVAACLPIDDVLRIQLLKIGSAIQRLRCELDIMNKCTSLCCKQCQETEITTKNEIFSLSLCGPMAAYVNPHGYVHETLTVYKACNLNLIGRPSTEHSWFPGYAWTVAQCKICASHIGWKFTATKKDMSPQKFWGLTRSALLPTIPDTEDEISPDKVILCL
Procedure, shortened: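 GST-tagged human WT Cereblon incubated with compound, then Thalidomide-Re tracer and anti-GST Eu antibody added. Displacement read by HTRF, reported as CRBN binding inhibition rate against blank control wells without protein.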

IKZF3 protein = IKZF3 protein (Homo sapiens (Human), UniProt Q96SW2+Q9UKT9); assay: Western-blot assay of substrate protein degradation in hPBMC, IKZF3; format: cell-based; settings: hPBMC cells, compound 500 nM, 24 hours, Western blot
Sequence of IKZF3 protein (Q9UKT9 whole entry): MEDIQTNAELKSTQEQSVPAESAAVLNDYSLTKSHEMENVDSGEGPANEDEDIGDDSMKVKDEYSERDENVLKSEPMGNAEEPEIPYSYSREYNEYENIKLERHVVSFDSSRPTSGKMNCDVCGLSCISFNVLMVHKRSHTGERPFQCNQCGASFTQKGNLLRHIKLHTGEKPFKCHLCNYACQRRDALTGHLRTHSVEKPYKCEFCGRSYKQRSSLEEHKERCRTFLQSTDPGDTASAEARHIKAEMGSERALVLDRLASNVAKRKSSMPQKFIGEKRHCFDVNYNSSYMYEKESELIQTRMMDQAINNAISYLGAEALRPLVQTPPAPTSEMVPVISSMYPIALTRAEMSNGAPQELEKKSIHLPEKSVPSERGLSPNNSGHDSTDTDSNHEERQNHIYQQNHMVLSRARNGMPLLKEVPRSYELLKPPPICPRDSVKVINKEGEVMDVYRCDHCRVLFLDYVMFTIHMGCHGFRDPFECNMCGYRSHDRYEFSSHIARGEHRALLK
Sequence of IKZF3 protein (Q96SW2 whole entry): as the sequence (Q96SW2 whole entry) above
Sequence of IKZF3 protein (Q16531 whole entry partner): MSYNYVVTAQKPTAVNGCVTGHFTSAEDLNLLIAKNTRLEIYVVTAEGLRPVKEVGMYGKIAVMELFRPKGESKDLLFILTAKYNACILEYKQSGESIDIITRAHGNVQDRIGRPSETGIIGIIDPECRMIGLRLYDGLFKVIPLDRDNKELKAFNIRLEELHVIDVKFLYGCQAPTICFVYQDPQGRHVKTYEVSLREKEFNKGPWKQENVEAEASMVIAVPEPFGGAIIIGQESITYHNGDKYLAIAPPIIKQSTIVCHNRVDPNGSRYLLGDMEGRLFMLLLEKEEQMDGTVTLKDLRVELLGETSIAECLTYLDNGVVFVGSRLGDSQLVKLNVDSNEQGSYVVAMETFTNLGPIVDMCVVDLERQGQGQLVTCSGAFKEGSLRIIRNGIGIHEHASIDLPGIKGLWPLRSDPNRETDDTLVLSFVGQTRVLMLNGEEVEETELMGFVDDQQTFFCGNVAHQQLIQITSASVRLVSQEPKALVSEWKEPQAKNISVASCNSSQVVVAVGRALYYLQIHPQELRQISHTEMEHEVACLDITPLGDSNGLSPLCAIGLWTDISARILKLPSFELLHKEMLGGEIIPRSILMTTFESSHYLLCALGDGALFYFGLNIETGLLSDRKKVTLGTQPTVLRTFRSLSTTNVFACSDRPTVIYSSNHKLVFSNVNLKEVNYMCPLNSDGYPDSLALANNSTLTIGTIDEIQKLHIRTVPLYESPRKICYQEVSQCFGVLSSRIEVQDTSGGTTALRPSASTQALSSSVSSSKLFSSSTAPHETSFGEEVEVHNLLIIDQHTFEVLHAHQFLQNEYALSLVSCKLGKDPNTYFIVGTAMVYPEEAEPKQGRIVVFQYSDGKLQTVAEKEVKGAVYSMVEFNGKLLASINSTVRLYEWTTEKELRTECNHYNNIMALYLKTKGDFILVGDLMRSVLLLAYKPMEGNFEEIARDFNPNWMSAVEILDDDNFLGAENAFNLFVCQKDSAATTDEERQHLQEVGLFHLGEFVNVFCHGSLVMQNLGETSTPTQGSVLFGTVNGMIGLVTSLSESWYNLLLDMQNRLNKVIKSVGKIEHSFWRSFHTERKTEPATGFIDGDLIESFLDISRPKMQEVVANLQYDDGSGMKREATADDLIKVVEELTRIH

GSPT1 protein = GSPT1 protein (Homo sapiens (Human), UniProt P15170+Q96SW2); assay: Western-blot assay of substrate protein degradation in hPBMC, GSPT1; format: cell-based; settings: hPBMC cells, compound 500 nM, 24 hours, Western blot
Sequence of GSPT1 protein (P15170 whole entry): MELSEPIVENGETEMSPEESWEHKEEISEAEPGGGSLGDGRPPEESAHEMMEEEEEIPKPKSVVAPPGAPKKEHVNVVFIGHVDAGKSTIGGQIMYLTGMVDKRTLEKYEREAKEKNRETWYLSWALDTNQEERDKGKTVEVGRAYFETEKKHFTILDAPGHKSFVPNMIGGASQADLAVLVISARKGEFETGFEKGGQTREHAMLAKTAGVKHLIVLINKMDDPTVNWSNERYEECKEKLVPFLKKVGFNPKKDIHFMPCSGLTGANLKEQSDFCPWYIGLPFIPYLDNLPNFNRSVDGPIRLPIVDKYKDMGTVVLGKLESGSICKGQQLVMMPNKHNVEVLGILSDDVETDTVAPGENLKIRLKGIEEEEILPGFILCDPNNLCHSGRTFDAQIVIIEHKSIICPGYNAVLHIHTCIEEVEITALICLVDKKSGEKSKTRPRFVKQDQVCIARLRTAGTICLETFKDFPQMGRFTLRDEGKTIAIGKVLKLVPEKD
Sequence of GSPT1 protein (Q96SW2 whole entry): as the sequence (Q96SW2 whole entry) above
Sequence of GSPT1 protein (Q16531 whole entry partner): as the sequence (Q16531 whole entry partner) above

Sequence of IKZF1 protein (Q13422 whole entry): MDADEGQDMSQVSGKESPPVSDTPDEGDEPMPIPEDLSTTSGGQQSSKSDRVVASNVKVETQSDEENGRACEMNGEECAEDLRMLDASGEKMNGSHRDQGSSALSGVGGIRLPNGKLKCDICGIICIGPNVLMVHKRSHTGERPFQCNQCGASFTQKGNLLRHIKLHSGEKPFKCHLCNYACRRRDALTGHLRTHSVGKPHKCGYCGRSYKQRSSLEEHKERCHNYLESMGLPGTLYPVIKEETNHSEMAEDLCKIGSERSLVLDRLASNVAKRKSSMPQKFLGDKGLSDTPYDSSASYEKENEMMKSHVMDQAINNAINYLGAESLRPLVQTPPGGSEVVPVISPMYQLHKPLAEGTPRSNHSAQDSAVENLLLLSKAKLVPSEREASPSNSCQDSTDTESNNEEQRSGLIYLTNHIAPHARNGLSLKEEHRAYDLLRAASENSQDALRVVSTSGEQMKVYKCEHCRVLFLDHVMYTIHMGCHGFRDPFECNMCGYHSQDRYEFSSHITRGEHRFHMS
Sequence of IKZF1 protein (Q96SW2 whole entry): as the sequence (Q96SW2 whole entry) above
Sequence of IKZF1 protein (Q16531 whole entry partner): as the sequence (Q16531 whole entry partner) above

Row | SMILES | residual substrate protein level, IKZF1 (IKZF1 protein) | IC50 [1] | residual substrate protein level, IKZF3 (IKZF3 protein) | residual substrate protein level, GSPT1 (GSPT1 protein)
1 | CC1(C)CCC(CN2CC3CC(C2)N3Cc2ccc3c(c2F)CN(C2CCC(=O)NC2=O)C3=O)=C(c2ccc(Cl)cc2)C1 (stereo not drawn) [GT-03493, 3-(5-((3-((4′-chloro-5,5-dimethyl-3,4,5,6-tetrahydro-[1,1′-biphenyl]-2-yl)methyl)-3,6-diazabicyclo[3.1.1]heptan-6-yl)methyl)-4-fluoro-1-oxoisoindolin-2-yl)piperidine-2,6-dione] | A (A represents a residual substrate protein level of <50%) | 750 nM | A (A represents a residual substrate protein level of <50%) | A (A represents a residual substrate protein level of <50%)
2 | O=C1CCC(N2Cc3cc(C(=O)N4CCN(Cc5ccccc5-c5ccc(Cl)cc5)CC4)ccc3C2=O)C(=O)N1 (stereo not drawn) [GT-05455, 3-(5-(4-((4′-chloro-[1,1′-biphenyl]-2-yl)methyl)piperazine-1-carbonyl)-1-oxoisoindolin-2-yl)piperidine-2,6-dione] | B (B represents a residual substrate protein level of >50%) | 1070 nM | B (B represents a residual substrate protein level of >50%) | A (A represents a residual substrate protein level of <50%)
3 | O=C1CCC(N2Cc3cc(CN4CC5CN(Cc6ccccc6-c6ccc(Cl)cc6)CC5C4)ccc3C2=O)C(=O)N1 (stereo not drawn) [GT-05613, 3-(5-((5-((4′-chloro-[1,1′-biphenyl]-2-yl)methyl)hexahydropyrrolo[3,4-c]pyrrol-2(1H)-yl)methyl)-1-oxoisoindolin-2-yl)piperidine-2,6-dione] | B (B represents a residual substrate protein level of >50%) | 590 nM | A (A represents a residual substrate protein level of <50%) | B (B represents a residual substrate protein level of >50%)
4 | CC1(C)CCC(CN2CCN(Cc3ccc4c(c3)CN(C3CCC(=O)NC3=O)C4=O)C(C(F)(F)F)C2)=C(c2ccc(Cl)cc2)C1 (stereo not drawn) [GT-05796, 3-(5-((4-((4′-chloro-5,5-dimethyl-3,4,5,6-tetrahydro-[1,1′-biphenyl]-2-yl)methyl)-2-(trifluoromethyl)piperazin-1-yl)methyl)-1-oxoisoindolin-2-yl)piperidine-2,6-dione] | B (B represents a residual substrate protein level of >50%) | 200 nM | B (B represents a residual substrate protein level of >50%) | A (A represents a residual substrate protein level of <50%)
5 | CC1(C)CCC(CN2CC3CC2CN3Cc2ccc3c(c2)CN(C2CCC(=O)NC2=O)C3=O)=C(c2ccc(F)cc2)C1 (stereo not drawn) [GT-05401, 3-(5-((5-((4′-fluoro-5,5-dimethyl-3,4,5,6-tetrahydro-[1,1′-biphenyl]-2-yl)methyl)-2,5-diazabicyclo[2.2.1]heptan-2-yl)methyl)-1-oxoisoindolin-2-yl)piperidine-2,6-dione] | B (B represents a residual substrate protein level of >50%) | 590 nM | A (A represents a residual substrate protein level of <50%) | B (B represents a residual substrate protein level of >50%)
6 | CC1(C)CCC(C(=O)N2CC(O)(C(O)c3ccc4c(c3)CN(C3CCC(=O)NC3=O)C4=O)C2)=C(c2ccc(F)cc2)C1 (stereo not drawn) [GT-05490, 3-(5-((1-(4′-fluoro-5,5-dimethyl-3,4,5,6-tetrahydro-[1,1′-biphenyl]-2-carbonyl)-3-hydroxyazetidin-3-yl)(hydroxy)methyl)-1-oxoisoindolin-2-yl)piperidine-2,6-dione] | A (A represents a residual substrate protein level of <50%) | 580 nM | B (B represents a residual substrate protein level of >50%) | B (B represents a residual substrate protein level of >50%)
7 | CC1(C)CCC(C(=O)N2CC3CN(Cc4ccc5c(c4)CN(C4CCC(=O)NC4=O)C5=O)CC3C2)=C(c2ccc(Cl)cc2)C1 (stereo not drawn) [GT-05658, 3-(5-((5-(4′-chloro-5,5-dimethyl-3,4,5,6-tetrahydro-[1,1′-biphenyl]-2-carbonyl)hexahydropyrrolo[3,4-c]pyrrol-2(1H)-yl)methyl)-1-oxoisoindolin-2-yl)piperidine-2,6-dione] | B (B represents a residual substrate protein level of >50%) | 740 nM | A (A represents a residual substrate protein level of <50%) | B (B represents a residual substrate protein level of >50%)
8 | O=C1CCC(N2Cc3cc(C(=O)N4CC5CCC4CN5Cc4ccccc4-c4ccc(Cl)cc4)ccc3C2=O)C(=O)N1 (stereo not drawn) [GT-05622, 3-(5-(5-((4′-chloro-[1,1′-biphenyl]-2-yl)methyl)-2,5-diazabicyclo[2.2.2]octane-2-carbonyl)-1-oxoisoindolin-2-yl)piperidine-2,6-dione] | B (B represents a residual substrate protein level of >50%) | 910 nM | B (B represents a residual substrate protein level of >50%) | A (A represents a residual substrate protein level of <50%)
9 | O=C1CCC(N2Cc3cc(CN4CCN(Cc5ccncc5-c5ccc(Cl)cc5)CC4)ccc3C2=O)C(=O)N1 (stereo not drawn) [GT-04275, 3-(5-((4-((3-(4-chlorophenyl)pyridin-4-yl)methyl)piperazin-1-yl)methyl)-1-oxoisoindolin-2-yl)piperidine-2,6-dione] | A (A represents a residual substrate protein level of <50%) | 460 nM | A (A represents a residual substrate protein level of <50%) | A (A represents a residual substrate protein level of <50%)
10 | CC1(C)CCC(CN2CCN(Cc3ccc4c(c3)CN(C3CCC(=O)NC3=O)C4=O)C(C(F)(F)F)C2)=C(c2ccc(F)cc2)C1 (stereo not drawn) [GT-05846, 3-(5-((4-((4′-fluoro-5,5-dimethyl-3,4,5,6-tetrahydro-[1,1′-biphenyl]-2-yl)methyl)-2-(trifluoromethyl)piperazin-1-yl)methyl)-1-oxoisoindolin-2-yl)piperidine-2,6-dione] | B (B represents a residual substrate protein level of >50%) | 940 nM | B (B represents a residual substrate protein level of >50%) | A (A represents a residual substrate protein level of <50%)
11 | O=C1CCC(N2Cc3cc(CN4CCN(CC5=C(c6ccc(F)cc6)CCCC5)CC4)ccc3C2=O)C(=O)N1 (stereo not drawn) [GT-04193, 3-(5-((4-((4′-fluoro-3,4,5,6-tetrahydro-[1,1′-biphenyl]-2-yl)methyl)piperazin-1-yl)methyl)-1-oxoisoindolin-2-yl)piperidine-2,6-dione] | A (A represents a residual substrate protein level of <50%) | 460 nM | A (A represents a residual substrate protein level of <50%) | A (A represents a residual substrate protein level of <50%)
12 | O=C1CCC(N2Cc3cc(CN4CCN(Cc5ccccc5-c5ccc(F)cc5)CC4)cc(F)c3C2=O)C(=O)N1 (stereo not drawn) [GT-05604, 3-(7-fluoro-5-((4-((4′-fluoro-[1,1′-biphenyl]-2-yl)methyl)piperazin-1-yl)methyl)-1-oxoisoindolin-2-yl)piperidine-2,6-dione] | B (B represents a residual substrate protein level of >50%) | 720 nM | B (B represents a residual substrate protein level of >50%) | A (A represents a residual substrate protein level of <50%)
13 | CC1(C)CCC(CN2CCCN(Cc3ccc4c(c3)CN(C3CCC(=O)NC3=O)C4=O)CC2)=C(c2ccc(F)cc2)C1 (stereo not drawn) [GT-05504, 3-(5-((4-((4′-fluoro-5,5-dimethyl-3,4,5,6-tetrahydro-[1,1′-biphenyl]-2-yl)methyl)-1,4-diazepan-1-yl)methyl)-1-oxoisoindolin-2-yl)piperidine-2,6-dione] | A (A represents a residual substrate protein level of <50%) | 730 nM | A (A represents a residual substrate protein level of <50%) | B (B represents a residual substrate protein level of >50%)
14 | O=C1CCC(N2Cc3cc(CN4C5CC4CN(C(=O)c4ccccc4-c4ccc(Cl)cc4)C5)ccc3C2=O)C(=O)N1 (stereo not drawn) [GT-05665, 3-(5-((3-(4′-chloro-[1,1′-biphenyl]-2-carbonyl)-3,6-diazabicyclo[3.1.1]heptan-6-yl)methyl)-1-oxoisoindolin-2-yl)piperidine-2,6-dione] | B (B represents a residual substrate protein level of >50%) | 600 nM | B (B represents a residual substrate protein level of >50%) | A (A represents a residual substrate protein level of <50%)
15 | CC1(C)CCC(CN2CC3CCC2CN3Cc2ccc3c(c2)CN(C2CCC(=O)NC2=O)C3=O)=C(c2ccc(F)cc2)C1 (stereo not drawn) [GT-05512, 3-(5-((5-((4′-fluoro-5,5-dimethyl-3,4,5,6-tetrahydro-[1,1′-biphenyl]-2-yl)methyl)-2,5-diazabicyclo[2.2.2]octan-2-yl)methyl)-1-oxoisoindolin-2-yl)piperidine-2,6-dione] | B (B represents a residual substrate protein level of >50%) | 570 nM | B (B represents a residual substrate protein level of >50%) | A (A represents a residual substrate protein level of <50%)
